Consider 1 compound from ChEMBL document CHEMBL3784999, “Investigation of 4-amino-5-alkynylpyrimidine-2(1H)-ones as anti-mycobacterial agents” (Bioorg Med Chem, 2016).

Each structure is given as a SMILES string. ≈ marks a conversion by molar mass, not a printed value.

The test system of series [1] is Mus musculus. In words: Toxicity in BALB/c mouse infected with Mycobacterium tuberculosis H37Ra at 6.25 to 25 mg/kg, po administered for 2 weeks started on day 4 post bacterial infection by necroscopy in presence of isoniazid. Format: organism-based. The following applies: in vivo, 336 h.
Series [2] relates to Mus musculus. Nature of the series: Toxicity in BALB/c mouse infected with Mycobacterium tuberculosis H37Ra assessed as behavioral changes at 6.25 to 25 mg/kg, po administered for 2 weeks started on day 4 post bacterial infection in presence of isoniazid. Format: organism-based. The settings on record: in vivo, 336 h.
Series [3] relates to Mycobacterium tuberculosis. In words: Antimycobacterial activity against Mycobacterium tuberculosis H37Ra assessed as inhibition of mycobacterial replication at 100 ug/ml after 6 days by microplate Alamar blue assay. The settings on record: 144 h. Format: functional. (Alamar Blue is a resazurin reagent that responds to reducing activity.)
Series [4] deals with Mus musculus. In words: Toxicity in BALB/c mouse infected with Mycobacterium tuberculosis H37Ra assessed as change in calcium level in serum at 6.25 to 25 mg/kg, po administered for 2 weeks started on day 4 post bacterial infection in presence of isoniazid. The following applies: in vivo, 336 h. Format: organism-based.
In series [5] the test system is Mus musculus. In words: Toxicity in BALB/c mouse infected with Mycobacterium tuberculosis H37Ra assessed as change in creatinine level in serum at 6.25 to 25 mg/kg, po administered for 2 weeks started on day 4 post bacterial infection in presence of isoniazid. The settings on record: in vivo, 336 h. Format: organism-based.
Series [6] relates to Mus musculus. In words: Toxicity in BALB/c mouse infected with Mycobacterium tuberculosis H37Ra assessed as gross necroscopy changes at 6.25 to 25 mg/kg, po administered for 2 weeks started on day 4 post bacterial infection. Format: organism-based. The settings on record: in vivo, 336 h.
In series [7] the test system is Mycobacterium tuberculosis. In words: Antimycobacterial activity against Mycobacterium tuberculosis H37Ra infected in BALB/c mouse assessed as reduction of bacterial load in spleen at 12.5 mg/kg, po administered for 2 weeks started on day 4 post bacterial infection measured 3 days post last dose co-treated with 1 mg/kg, po isoniazid. Format: functional.
Series [8] concerns Mycobacterium tuberculosis. Nature of the series: Antimycobacterial activity against Mycobacterium tuberculosis H37Ra infected in BALB/c mouse assessed as reduction of bacterial load in liver at 12.5 mg/kg, po administered for 2 weeks started on day 4 post bacterial infection measured 3 days post last dose co-treated with 1 mg/kg, po isoniazid. Format: functional.
Series [9] concerns Mycobacterium tuberculosis. In words: Antimycobacterial activity against Mycobacterium tuberculosis H37Ra infected in BALB/c mouse assessed as reduction of bacterial load in liver at 25 mg/kg, po administered for 2 weeks started on day 4 post bacterial infection measured 3 days post last dose. Format: functional.
For series [10], the system named is Mycobacterium tuberculosis. Nature of the series: Antimycobacterial activity against Mycobacterium tuberculosis H37Ra assessed as inhibition of mycobacterial replication after 6 days by microplate Alamar blue assay. Format: functional. The settings on record: 144 h.
Series [11] deals with Mycobacterium tuberculosis. Nature of the series: Antimycobacterial activity against Mycobacterium tuberculosis H37Ra assessed as inhibition of mycobacterial replication at 6.25 ug/ml after 6 days by microplate Alamar blue assay in presence of isoniazid. Format: functional. The settings on record: 144 h.

By inhibition is commonly meant the relative decrease from the control value, in per cent. Broadly, the inhibition in vivo is the drop in the measured response relative to a control, in per cent. For orientation: MIC50 means the lowest concentration that inhibits either 50% of growth or 50% of the strains tested, depending on the study. `CCCCCC#Cc1c[nH]c(=O)nc1N`: the Activity entry in series [1], in series [2], in series [4], in series [5] and in [6] was “Non-toxic” each time. The inhibition at 100 µg/mL in series [3] worked out at 100%. Besides, the “inhibition (INH)” value in series [7] is listed as 70%; in series [8], 96%. In series [9], the inhibition in vivo at 25 mg/kg is 50%. Also, the MIC50 in series [10] came out at 12.5 µg/mL (≈ 60.9 µM). In addition, the inhibition at 6.25 µg/mL in series [11] is 100%.
